From ChEMBL document CHEMBL5465560, “Selectivity Literature for EUbOPEN Chemogenomic Library” (2024)
Each block holds one compound with its values, some of them ahead of it.

Tests used:
[1] = target: Tyrosine-protein kinase Lck (Homo sapiens, UniProt P06239); assay: Selectivity interaction (Ambit KINOMEscan and KiNATiv profiling in Jurkat cells) EUB0000090b LCK; type: cell-based; settings: at 1 µM
[2] = target: T1, Serine/threonine-protein kinase TBK1 (Homo sapiens) (UniProt Q9UHD2); assay: Selectivity interaction (ActivX KiNativ screen (kinase selectivity in THP-1 cell lysates)) EUB0000639a TBK1; type: subcellular; settings: lysate, at 0.01 µM
T1 sequence (whole entry): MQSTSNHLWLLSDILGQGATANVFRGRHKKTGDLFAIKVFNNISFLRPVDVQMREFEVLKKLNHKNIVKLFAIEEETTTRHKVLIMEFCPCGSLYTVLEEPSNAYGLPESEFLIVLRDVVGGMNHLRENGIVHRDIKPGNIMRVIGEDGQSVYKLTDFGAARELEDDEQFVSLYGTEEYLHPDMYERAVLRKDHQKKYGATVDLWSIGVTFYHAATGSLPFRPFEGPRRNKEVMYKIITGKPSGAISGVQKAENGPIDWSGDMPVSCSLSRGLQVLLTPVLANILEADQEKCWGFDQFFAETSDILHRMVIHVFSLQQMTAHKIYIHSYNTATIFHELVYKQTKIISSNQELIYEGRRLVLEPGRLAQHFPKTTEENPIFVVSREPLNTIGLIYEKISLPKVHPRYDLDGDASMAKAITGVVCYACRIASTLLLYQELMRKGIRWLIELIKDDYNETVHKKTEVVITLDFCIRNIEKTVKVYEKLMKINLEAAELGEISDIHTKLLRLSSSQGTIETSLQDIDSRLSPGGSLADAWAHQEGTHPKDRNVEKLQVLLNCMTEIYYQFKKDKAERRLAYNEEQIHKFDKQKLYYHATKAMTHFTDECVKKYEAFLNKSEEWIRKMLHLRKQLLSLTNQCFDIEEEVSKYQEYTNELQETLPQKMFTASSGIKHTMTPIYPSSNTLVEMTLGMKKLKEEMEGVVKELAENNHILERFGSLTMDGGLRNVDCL

[3] = target: Myosin light chain kinase family member 4 (Homo sapiens, UniProt Q86YV6); assay: Selectivity interaction (Enzymatic assay) EUB0001550a MYLK4
Sequence of Myosin light chain kinase family member 4 (Q86YV6 whole entry, canonical isoform): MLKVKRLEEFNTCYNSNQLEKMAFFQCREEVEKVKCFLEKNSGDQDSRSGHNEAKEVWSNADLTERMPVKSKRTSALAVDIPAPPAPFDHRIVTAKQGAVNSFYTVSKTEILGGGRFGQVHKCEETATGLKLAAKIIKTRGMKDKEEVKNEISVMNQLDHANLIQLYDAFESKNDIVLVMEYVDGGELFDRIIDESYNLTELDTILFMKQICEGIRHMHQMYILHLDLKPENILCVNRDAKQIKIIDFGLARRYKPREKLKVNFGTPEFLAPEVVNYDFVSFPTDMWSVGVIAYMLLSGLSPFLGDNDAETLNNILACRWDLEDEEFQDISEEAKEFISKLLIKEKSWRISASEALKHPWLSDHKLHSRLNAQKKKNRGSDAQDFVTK

[4] = target: Phosphorylase b kinase gamma catalytic chain, skeletal muscle/heart isoform (Homo sapiens) (UniProt Q16816); assay: Selectivity interaction (KinomeScan (DiscoverX)) EUB0000695a PHKG1; settings: at 100 nM
Sequence of Phosphorylase b kinase gamma catalytic chain, skeletal muscle/heart isoform (Homo sapiens) (Q16816 whole entry, looked up, canonical isoform): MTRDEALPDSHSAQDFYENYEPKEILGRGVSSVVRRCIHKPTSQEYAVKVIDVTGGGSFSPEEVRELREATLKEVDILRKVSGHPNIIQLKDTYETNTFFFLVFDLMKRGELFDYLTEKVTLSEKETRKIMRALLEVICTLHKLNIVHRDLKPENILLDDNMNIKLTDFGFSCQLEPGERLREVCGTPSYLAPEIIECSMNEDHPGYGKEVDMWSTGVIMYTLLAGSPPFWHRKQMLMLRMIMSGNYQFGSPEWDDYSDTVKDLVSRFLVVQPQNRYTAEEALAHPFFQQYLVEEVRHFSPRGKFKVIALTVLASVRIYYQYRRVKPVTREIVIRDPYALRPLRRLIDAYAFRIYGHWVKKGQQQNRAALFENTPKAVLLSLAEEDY

[5] = target: Serine/threonine-protein kinase PAK 2 (Homo sapiens) (UniProt Q13177); settings: at 10 µM
Sequence of Serine/threonine-protein kinase PAK 2 (Homo sapiens) (Q13177 whole entry, the tested form may be a part): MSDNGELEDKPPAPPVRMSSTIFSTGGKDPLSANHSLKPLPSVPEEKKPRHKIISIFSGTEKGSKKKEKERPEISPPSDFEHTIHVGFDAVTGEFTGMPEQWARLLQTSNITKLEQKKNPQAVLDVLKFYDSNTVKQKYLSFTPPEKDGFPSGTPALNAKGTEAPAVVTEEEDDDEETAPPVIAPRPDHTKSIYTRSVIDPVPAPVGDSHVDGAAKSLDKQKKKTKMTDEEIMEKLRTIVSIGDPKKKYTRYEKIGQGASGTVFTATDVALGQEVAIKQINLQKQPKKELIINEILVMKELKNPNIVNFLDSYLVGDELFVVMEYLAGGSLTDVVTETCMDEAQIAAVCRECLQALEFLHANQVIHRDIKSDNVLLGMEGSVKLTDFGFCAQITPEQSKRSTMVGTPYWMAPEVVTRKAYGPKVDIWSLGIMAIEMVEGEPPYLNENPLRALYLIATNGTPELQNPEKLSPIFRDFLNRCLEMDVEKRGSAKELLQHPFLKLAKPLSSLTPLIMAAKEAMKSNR

[6] = target: ATPase family AAA domain-containing protein 2 (Homo sapiens) (UniProt Q6PL18); assay: Selectivity interaction (Human bromodomain panel (DSF assay)) EUB0000233b ATAD2
[7] = target: T2, Serine/threonine-protein kinase Sgk2 (Homo sapiens) (UniProt Q9HBY8); assay: Selectivity interaction (Upstate Kinase Profiler service (Millipore)) EUB0000056c SGK2; settings: at 1 µM
T2 sequence (whole entry): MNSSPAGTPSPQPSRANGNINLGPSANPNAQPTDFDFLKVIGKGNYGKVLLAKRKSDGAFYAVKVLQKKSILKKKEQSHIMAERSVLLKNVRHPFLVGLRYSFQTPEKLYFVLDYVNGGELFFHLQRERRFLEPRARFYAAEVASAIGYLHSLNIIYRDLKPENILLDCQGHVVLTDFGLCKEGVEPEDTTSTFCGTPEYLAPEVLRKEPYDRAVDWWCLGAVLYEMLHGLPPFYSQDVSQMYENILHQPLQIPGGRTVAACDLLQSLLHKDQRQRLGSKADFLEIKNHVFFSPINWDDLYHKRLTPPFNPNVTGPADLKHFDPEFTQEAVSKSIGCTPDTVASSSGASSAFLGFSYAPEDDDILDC

[8] = target: Insulin receptor-related protein (Homo sapiens) (UniProt P14616); assay: Selectivity interaction (Upstate Kinase Profiler service (Millipore)) EUB0000056c INSRR; settings: at 1 µM
Sequence of Insulin receptor-related protein (Homo sapiens) (P14616 27-742 limits assumed): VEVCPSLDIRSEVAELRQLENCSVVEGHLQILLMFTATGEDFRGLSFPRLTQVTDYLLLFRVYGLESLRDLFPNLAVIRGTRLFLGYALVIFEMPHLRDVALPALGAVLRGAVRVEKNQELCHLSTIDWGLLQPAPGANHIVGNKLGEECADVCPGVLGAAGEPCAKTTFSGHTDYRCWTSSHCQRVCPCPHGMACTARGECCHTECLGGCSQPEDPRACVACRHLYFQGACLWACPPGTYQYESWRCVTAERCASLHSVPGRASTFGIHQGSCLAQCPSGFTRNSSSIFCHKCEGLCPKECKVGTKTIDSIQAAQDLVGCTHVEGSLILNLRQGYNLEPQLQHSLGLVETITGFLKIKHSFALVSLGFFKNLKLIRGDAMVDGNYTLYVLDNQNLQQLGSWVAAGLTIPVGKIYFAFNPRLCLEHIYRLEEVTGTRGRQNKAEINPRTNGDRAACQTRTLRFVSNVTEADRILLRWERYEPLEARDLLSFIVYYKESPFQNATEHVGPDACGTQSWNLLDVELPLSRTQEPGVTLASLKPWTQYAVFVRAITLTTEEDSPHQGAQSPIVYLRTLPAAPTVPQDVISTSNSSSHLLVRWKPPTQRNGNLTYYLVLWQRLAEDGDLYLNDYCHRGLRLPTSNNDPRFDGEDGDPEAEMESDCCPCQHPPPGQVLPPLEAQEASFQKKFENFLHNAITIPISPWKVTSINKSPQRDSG
Sequence of Insulin receptor-related protein (Homo sapiens) (P14616 747-1297 limits assumed): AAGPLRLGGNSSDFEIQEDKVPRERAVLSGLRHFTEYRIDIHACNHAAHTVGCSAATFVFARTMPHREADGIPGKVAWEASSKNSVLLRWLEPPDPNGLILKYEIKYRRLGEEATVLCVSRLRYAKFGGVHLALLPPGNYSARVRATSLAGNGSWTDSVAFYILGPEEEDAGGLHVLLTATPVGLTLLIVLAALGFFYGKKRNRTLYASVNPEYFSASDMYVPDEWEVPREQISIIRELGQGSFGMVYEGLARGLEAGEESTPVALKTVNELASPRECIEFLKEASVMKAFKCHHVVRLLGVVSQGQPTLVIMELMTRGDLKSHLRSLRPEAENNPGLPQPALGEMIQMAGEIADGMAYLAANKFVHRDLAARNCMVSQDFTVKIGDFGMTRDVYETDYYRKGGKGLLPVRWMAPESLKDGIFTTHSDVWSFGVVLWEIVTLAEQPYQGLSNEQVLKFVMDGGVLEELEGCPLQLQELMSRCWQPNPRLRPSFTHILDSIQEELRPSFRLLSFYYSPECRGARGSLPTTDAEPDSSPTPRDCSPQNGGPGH

[9] = target: Phosphatidylinositol 4,5-bisphosphate 3-kinase catalytic subunit gamma isoform (Homo sapiens) (UniProt P48736); assay: Selectivity interaction (ActivX KiNativ screen (ex vivo kinase selectivity in human PBMCs)) EUB0001619a PIK3CG; type: cell-based; settings: PBMC, at 1 µM
Sequence of Phosphatidylinositol 4,5-bisphosphate 3-kinase catalytic subunit gamma isoform (Homo sapiens) (P48736 whole entry, looked up, the tested form may be a part, canonical isoform): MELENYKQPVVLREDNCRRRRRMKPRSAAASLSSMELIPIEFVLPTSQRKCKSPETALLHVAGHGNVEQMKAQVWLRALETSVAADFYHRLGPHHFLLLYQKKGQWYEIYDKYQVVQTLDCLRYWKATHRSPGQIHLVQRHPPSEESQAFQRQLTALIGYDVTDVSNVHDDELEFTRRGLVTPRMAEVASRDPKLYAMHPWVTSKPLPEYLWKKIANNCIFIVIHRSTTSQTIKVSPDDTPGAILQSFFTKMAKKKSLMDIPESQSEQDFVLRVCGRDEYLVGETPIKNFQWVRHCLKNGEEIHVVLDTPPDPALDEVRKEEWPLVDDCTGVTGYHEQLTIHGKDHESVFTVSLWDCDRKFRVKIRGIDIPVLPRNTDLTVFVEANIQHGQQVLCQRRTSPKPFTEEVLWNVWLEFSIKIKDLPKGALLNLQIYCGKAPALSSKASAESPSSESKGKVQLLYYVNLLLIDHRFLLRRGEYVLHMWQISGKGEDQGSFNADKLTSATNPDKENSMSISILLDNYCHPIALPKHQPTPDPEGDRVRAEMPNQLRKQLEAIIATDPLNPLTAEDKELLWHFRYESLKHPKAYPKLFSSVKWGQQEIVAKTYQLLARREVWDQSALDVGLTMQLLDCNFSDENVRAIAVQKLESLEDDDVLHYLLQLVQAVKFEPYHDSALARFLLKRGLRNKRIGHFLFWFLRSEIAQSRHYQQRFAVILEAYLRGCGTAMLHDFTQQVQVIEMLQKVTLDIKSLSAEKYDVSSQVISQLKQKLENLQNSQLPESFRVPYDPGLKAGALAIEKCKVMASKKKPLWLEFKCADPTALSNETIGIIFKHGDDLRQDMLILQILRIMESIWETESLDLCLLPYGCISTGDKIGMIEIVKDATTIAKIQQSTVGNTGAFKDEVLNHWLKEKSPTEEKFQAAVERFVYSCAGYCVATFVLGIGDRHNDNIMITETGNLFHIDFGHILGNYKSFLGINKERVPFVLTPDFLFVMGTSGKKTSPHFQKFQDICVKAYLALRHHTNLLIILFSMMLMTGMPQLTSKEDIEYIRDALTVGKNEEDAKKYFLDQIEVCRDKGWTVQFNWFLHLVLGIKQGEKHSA

[10] = target: T3, Ankyrin repeat and protein kinase domain-containing protein 1 (Homo sapiens) (UniProt Q8NFD2); assay: Selectivity interaction (KinomeScan (DiscoverX)) EUB0000607a ANKK1; settings: at 10 µM
T3 sequence (whole entry): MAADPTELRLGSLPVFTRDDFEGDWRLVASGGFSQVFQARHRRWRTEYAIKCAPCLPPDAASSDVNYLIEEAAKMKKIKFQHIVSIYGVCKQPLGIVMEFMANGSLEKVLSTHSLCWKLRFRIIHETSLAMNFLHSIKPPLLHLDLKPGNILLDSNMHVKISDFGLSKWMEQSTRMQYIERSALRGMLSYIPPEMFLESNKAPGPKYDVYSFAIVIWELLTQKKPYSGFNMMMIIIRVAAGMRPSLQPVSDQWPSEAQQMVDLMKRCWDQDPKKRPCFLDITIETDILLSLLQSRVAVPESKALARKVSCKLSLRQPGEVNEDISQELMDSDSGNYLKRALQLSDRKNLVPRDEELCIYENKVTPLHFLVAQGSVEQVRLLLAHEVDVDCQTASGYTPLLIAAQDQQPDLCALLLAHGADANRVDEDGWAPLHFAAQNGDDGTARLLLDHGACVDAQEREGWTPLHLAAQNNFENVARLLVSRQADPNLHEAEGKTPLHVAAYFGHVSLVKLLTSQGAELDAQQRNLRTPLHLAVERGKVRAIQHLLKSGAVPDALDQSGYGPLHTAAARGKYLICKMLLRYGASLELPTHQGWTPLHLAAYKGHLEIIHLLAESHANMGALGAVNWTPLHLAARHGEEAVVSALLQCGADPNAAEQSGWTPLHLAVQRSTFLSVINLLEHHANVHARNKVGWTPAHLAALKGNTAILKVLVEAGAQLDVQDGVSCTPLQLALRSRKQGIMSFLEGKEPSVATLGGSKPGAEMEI

Sequence of Tyrosine-protein kinase Lck (P06239 2-509 limits assumed): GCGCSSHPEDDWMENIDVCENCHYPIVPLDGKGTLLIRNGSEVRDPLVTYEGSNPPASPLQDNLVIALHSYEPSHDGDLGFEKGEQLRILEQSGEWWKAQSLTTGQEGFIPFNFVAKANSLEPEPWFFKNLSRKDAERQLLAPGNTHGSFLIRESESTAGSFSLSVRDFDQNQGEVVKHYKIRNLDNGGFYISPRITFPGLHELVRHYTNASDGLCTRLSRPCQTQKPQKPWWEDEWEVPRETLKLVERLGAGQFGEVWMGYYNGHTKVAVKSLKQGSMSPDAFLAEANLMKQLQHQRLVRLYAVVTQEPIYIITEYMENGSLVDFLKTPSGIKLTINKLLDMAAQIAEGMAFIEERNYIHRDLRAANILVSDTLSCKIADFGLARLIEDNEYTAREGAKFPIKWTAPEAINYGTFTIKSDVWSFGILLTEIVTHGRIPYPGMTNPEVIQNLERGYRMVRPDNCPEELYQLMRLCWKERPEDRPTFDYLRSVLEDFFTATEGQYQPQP

SMILES: CN(C)C/C=C/C(=O)Nc1ccc(C(=O)N2CCCC(Nc3ncc(Cl)c(-c4c[nH]c5ccccc45)n3)C2)cc1 (stereo not given)
% of control [1]: 84%

SMILES: Cc1cc(F)c(C(=O)Nc2cccc(-c3nncn3C(C)C)n2)cc1-n1cnc(C2CC2)c1
% of control [4]: 98%

SMILES: CCN(CC)CCCCNc1ncc2cc(-c3cc(OC)cc(OC)c3)c(NC(=O)NC(C)(C)C)nc2n1
% of control [5]: 100%

SMILES: N#Cc1cccc(-c2c[nH]c3ncnc(N4CCOCC4)c23)c1
% of inhibition [9]: -6%

SMILES: CNC(=O)Nc1ccc(-c2nc(N3CC4CCC(C3)O4)c3cnn(C4CCC5(CC4)OCCO5)c3n2)cc1
% of control [10]: 77%

Results, then the compound that gave them:

% of inhibition [2]: 1.3%
SMILES: CC[C@@H]1[C@H](F)C(=O)N[C@@H]1COc1nccc2cc(C(N)=O)c(OC)cc12 [ZIMLOVISERTIB]

IC50 [3]: 66 nM
SMILES: CN(C)CC#Cc1ccc2[nH]c3c(c2c1)-c1nc(N)ncc1CCC3

dTM [6]: < 2 K
SMILES: CN(C)CCCOc1ccc(-c2cc(NCCCn3cccn3)nc(S(C)(=O)=O)n2)cc1

% of inhibition [7]: 3% | % of inhibition [8]: -8%
SMILES: Cc1ccc(-c2ccc3c(ccc4sc5c(c43)NC[C@@H](C)NC5=O)n2)cn1
